Measurements published in patent US20240383875A1, “Benzimidazole Pyridine Derivatives” (Hoffmann-La Roche Inc., priority 2022, published 2024).
Blank lines part the entries; values can stand above or below the compound they belong to.

Assays:
Assay type in all cases: biochemical
SIK2 = SIK2 (Homo sapiens, UniProt Q9H0K1); test: Enzymatic activity assay SIK2, RapidFire mass spectrometry (phosphorylation of CHK-peptide); conditions: RapidFire MS, inhibition of SIK2; read-out: SIK2 RF IC50
Outline: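 Read-out is the summed phospho-species fraction of CHK-peptide by RapidFire mass spectrometry, normalized between DMSO and 1 μM YKL-05-099. The reaction used 0.5 nM SIK2, 100 μM ATP and 10 μM peptide solutions in HEPES pH 7.0/10 mM magnesium acetate for 45 min at ambient temperature.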

SIK1 = SIK1 (Homo sapiens, UniProt P57059); test: Enzymatic activity assay SIK1, RapidFire mass spectrometry (phosphorylation of CHK-peptide); conditions: RapidFire MS, inhibition of SIK1; read-out: SIK1 RF IC50
Outline: (§1)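 Human SIK1/2/3, 5/0.5/1.5 nM; 12.5 mM HEPES pH 7.0, 10 mM Mg acetate, 0.005% BSA. 30 min cpd pre-inc, + CHK-peptide (10 μM soln) + ATP (100 μM soln), 45 min RT. Formic acid stop; RF-MS phospho ratio; IC50.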

SIK3 = SIK3 (Homo sapiens, UniProt Q9Y2K2); test: Enzymatic activity assay SIK3, RapidFire mass spectrometry (phosphorylation of CHK-peptide); conditions: RapidFire MS, inhibition of SIK3; read-out: SIK3 RF IC50
Outline: as §1

SIK3, sequence (Q9Y2K2 whole entry): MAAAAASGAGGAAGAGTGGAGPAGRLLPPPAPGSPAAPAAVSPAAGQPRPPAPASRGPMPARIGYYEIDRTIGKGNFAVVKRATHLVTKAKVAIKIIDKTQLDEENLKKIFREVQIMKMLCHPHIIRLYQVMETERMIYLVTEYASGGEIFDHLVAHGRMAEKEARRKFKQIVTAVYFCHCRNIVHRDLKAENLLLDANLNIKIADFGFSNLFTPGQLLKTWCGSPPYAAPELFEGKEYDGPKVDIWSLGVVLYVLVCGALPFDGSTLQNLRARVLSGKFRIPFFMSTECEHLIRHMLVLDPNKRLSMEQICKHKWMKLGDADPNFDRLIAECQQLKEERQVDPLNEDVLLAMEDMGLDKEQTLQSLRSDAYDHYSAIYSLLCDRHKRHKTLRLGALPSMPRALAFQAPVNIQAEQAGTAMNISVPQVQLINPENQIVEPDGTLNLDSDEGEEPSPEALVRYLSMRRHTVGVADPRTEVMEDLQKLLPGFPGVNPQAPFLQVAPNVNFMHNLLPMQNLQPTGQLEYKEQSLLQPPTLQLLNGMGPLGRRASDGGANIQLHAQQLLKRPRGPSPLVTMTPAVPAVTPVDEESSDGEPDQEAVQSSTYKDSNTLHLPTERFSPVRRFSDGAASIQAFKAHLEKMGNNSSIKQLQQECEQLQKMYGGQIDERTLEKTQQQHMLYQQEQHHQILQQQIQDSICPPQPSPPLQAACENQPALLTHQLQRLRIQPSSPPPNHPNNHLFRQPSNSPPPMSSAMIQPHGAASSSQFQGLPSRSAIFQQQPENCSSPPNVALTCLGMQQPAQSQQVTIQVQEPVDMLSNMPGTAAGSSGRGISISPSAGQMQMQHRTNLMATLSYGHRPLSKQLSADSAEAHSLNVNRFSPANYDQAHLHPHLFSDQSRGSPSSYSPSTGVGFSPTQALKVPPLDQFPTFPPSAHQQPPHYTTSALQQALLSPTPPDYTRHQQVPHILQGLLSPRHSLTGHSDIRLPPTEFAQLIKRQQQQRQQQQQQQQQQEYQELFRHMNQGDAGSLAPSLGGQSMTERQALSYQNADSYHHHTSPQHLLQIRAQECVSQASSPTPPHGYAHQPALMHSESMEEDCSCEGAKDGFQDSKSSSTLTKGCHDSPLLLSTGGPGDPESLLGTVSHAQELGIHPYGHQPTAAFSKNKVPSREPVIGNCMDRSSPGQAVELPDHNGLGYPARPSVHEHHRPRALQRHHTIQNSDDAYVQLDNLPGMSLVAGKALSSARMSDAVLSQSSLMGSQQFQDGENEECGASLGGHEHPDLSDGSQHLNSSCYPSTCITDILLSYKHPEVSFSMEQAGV
SIK2, sequence (Q9H0K1 whole entry): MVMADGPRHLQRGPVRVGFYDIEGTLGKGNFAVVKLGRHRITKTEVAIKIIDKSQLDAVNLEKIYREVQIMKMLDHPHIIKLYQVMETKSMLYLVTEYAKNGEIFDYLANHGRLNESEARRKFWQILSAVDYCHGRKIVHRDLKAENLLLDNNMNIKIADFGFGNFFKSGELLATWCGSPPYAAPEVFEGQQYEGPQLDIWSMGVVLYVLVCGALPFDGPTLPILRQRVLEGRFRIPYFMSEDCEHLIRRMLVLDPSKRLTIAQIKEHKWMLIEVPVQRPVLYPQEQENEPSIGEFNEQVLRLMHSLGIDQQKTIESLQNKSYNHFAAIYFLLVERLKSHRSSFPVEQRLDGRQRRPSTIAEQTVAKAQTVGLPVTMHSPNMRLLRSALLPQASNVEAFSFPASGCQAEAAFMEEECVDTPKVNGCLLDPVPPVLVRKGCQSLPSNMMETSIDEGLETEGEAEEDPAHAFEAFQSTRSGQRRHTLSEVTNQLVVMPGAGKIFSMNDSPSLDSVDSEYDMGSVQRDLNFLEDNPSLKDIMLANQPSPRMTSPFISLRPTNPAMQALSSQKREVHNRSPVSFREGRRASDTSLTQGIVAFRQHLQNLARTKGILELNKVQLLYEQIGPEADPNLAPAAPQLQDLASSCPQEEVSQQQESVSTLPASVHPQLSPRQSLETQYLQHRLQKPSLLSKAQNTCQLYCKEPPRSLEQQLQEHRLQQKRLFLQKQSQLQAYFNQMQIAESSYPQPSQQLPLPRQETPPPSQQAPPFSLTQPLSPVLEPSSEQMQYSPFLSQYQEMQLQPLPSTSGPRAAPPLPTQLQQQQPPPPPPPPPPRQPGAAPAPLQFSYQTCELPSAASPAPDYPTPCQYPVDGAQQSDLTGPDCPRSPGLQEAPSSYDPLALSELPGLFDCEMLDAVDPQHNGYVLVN
SIK1, sequence (P57059 whole entry): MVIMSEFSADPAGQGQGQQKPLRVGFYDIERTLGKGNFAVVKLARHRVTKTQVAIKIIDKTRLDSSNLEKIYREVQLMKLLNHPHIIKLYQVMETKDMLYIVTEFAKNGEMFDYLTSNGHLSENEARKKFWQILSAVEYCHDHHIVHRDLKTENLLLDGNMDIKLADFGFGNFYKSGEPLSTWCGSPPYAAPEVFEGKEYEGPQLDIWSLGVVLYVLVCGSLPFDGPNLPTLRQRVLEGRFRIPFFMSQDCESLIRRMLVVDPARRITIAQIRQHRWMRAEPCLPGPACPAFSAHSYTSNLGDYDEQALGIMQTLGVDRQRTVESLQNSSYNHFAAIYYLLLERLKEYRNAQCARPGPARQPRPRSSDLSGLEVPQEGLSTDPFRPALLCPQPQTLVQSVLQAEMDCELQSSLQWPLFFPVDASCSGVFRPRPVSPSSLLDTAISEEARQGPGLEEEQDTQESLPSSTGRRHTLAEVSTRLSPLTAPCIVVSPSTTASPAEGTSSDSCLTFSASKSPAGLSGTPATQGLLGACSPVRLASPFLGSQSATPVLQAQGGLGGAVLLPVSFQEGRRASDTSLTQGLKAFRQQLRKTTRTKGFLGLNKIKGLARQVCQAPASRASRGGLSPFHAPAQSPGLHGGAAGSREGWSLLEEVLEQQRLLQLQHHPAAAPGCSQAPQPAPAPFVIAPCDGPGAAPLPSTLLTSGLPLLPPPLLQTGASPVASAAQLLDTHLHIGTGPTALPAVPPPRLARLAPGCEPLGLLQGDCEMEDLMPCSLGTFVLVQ

SMILES: CNC(=O)c1cc(C)n(-c2nc(-n3cnc4cc(Nc5ccc(C)nn5)ccc43)ccc2C(C)O)n1 (stereo not drawn) [Example 152, 1-[3-(1-Hydroxyethyl)-6-[5-[(6-methylpyridazin-3-yl)amino]benzimidazol-1-yl]-2-pyridyl]-N,5-dimethyl-pyrazole-3-carboxamide]
IC50 (SIK2): 82.1 nM
IC50 (SIK1): 5040 nM
IC50 (SIK3): 16.1 nM

SMILES: CNC(=O)c1cc(C)n(-c2nc(-n3cnc4ccc(Nc5ccc(C)nn5)cc43)ccc2C(C)O)n1 (stereo not drawn) [Example 144, 1-[3-(1-Hydroxyethyl)-6-[6-[(6-methylpyridazin-3-yl)amino]benzimidazol-1-yl]-2-pyridyl]-N,5-dimethyl-pyrazole-3-carboxamide]
IC50 (SIK2): 5920 nM
IC50 (SIK1): 8400 nM
IC50 (SIK3): 9240 nM

SMILES: Cc1ccc(Nc2ccc3c(c2)ncn3-c2ccc(C(C)O)c(-c3cnc(O)cc3C(F)(F)F)n2)nn1 (stereo not drawn) [Example 164, 5-[3-(1-Hydroxyethyl)-6-[5-[(6-methylpyridazin-3-yl)amino]benzimidazol-1-yl]-2-pyridyl]-4-(trifluoromethyl)pyridin-2-ol]
IC50 (SIK2): 3300 nM
IC50 (SIK1): > 30000 nM
IC50 (SIK3): 963 nM

SMILES: COc1cc2ncn(-c3ccc(CO)c(NCCCCO)n3)c2cc1OC [Example 34, 4-((6-(5,6-Dimethoxy-1H-benzo[d]imidazol-1-yl)-3-(hydroxymethyl)pyridin-2-yl)amino)butan-1-ol]
IC50 (SIK2): 377 nM
IC50 (SIK1): 508 nM
IC50 (SIK3): 1680 nM

SMILES: Cc1ccc(Nc2ccc3ncn(-c4ccc(C(C)O)c(-n5ncc(C#N)c5C)n4)c3c2)nn1 (stereo not drawn) [Example 150, 1-[3-(1-Hydroxyethyl)-6-[6-[(6-methylpyridazin-3-yl)amino]benzimidazol-1-yl]-2-pyridyl]-5-methyl-pyrazole-4-carbonitrile]
IC50 (SIK2): 207 nM
IC50 (SIK1): 24400 nM
IC50 (SIK3): 33.5 nM

SMILES: Cc1cc(C(F)F)nn1-c1nc(-n2cnc3cc(F)c(Nc4ccc(Cl)nn4)cc32)ccc1C(C)O (stereo not drawn) [Example 371, 1-[6-[6-[(6-chloropyridazin-3-yl)amino]-5-fluoro-benzimidazol-1-yl]-2-[3-(difluoromethyl)-5-methyl-pyrazol-1-yl]-3-pyridyl]ethanol]
IC50 (SIK2): 84.7 nM
IC50 (SIK1): 145 nM
IC50 (SIK3): 433 nM

SMILES: Cc1ccc(Nc2cc3ncn(-c4ccc([C@@H](C)O)c(-n5nc(OC(F)F)cc5C)n4)c3cc2OC2COC2)nn1 [Example 384, (1R)-1-[2-[3-(difluoromethoxy)-5-methyl-pyrazol-1-yl]-6-[5-[(6-methylpyridazin-3-yl)amino]-6-(oxetan-3-yloxy)benzimidazol-1-yl]-3-pyridyl]ethanol]
IC50 (SIK2): 41.3 nM
IC50 (SIK1): 215 nM
IC50 (SIK3): 80.2 nM

SMILES: Cc1ccc(Nc2ccc3c(c2)ncn3-c2ccc(C(C)O)c(-c3cncnc3NC3CC3)n2)nn1 (stereo not drawn) [Example 163, 1-[2-[4-(Cyclopropylamino)pyrimidin-5-yl]-6-[5-[(6-methylpyridazin-3-yl)amino]benzimidazol-1-yl]-3-pyridyl]ethanol]
IC50 (SIK2): 964 nM
IC50 (SIK1): > 30000 nM
IC50 (SIK3): 181 nM

SMILES: Cc1ccc(Nc2ccc3c(c2)ncn3-c2ccc(C(C)O)c(-n3cc(C#N)nn3)n2)nn1 (stereo not drawn) [Example 253, 1-[3-(1-Hydroxyethyl)-6-[5-[(6-methylpyridazin-3-yl)amino]benzimidazol-1-yl]-2-pyridyl]triazole-4-carbonitrile]
IC50 (SIK2): 161 nM
IC50 (SIK1): 8970 nM
IC50 (SIK3): 34.5 nM

SMILES: COc1cc2ncn(-c3ccc([C@@H](C)O)c(-c4cccc(C#N)c4)n3)c2cc1OC [Example 38, (R)-3-(6-(5,6-Dimethoxy-1H-benzo[d]imidazol-1-yl)-3-(l-hydroxyethyl)pyridin-2-yl)benzonitrile]
IC50 (SIK2): 58.4 nM
IC50 (SIK1): 158 nM
IC50 (SIK3): 259 nM

SMILES: CCOc1cc(C)n(-c2nc(-n3cnc4ccc(Nc5ccc(C)nn5)cc43)ccc2C(C)O)n1 (stereo not drawn) [Example 134, 1-[2-(3-Ethoxy-5-methyl-pyrazol-1-yl)-6-[6-[(6-methylpyridazin-3-yl)amino]benzimidazol-1-yl]-3-pyridyl]ethanol]
IC50 (SIK2): 345 nM
IC50 (SIK1): 426 nM
IC50 (SIK3): 1290 nM

The next compounds have a lower IC50 (SIK2) than those just listed; values first:

IC50 (SIK2): 1.1 nM
IC50 (SIK1): 138 nM
IC50 (SIK3): 1.4 nM
SMILES: Cc1ccc(Nc2ccc3c(c2)ncn3-c2ccc(C(C)O)c(-c3cn(CC(F)F)nc3C)n2)nn1 (stereo not drawn) [Example 313, 1-[2-[1-(2,2-difluoroethyl)-3-methyl-pyrazol-4-yl]-6-[5-[(6-methylpyridazin-3-yl)amino]benzimidazol-1-yl]-3-pyridyl]ethanol]

IC50 (SIK2): 39.9 nM
IC50 (SIK1): 1760 nM
IC50 (SIK3): 8.6 nM
SMILES: Cc1ccc(Nc2ccc3c(c2)ncn3-c2ccc(C(C)O)c(-c3cc(F)ncc3C)n2)nn1 (stereo not drawn) [Example 168, 1-[2-(2-Fluoro-5-methyl-4-pyridyl)-6-[5-[(6-methylpyridazin-3-yl)amino]benzimidazol-1-yl]-3-pyridyl]ethanol]

IC50 (SIK2): 7.3 nM
IC50 (SIK1): 1090 nM
IC50 (SIK3): 2.9 nM
SMILES: Cc1ccc(Nc2ccc3c(c2)ncn3-c2ccc(CO)c(-c3cn(CC(F)(F)F)nc3C)n2)nn1 [Example 315, [6-[5-[(6-methylpyridazin-3-yl)amino]benzimidazol-1-yl]-2-[3-methyl-1-(2,2,2-trifluoroethyl)pyrazol-4-yl]-3-pyridyl]methanol]

IC50 (SIK2): 13.7 nM
IC50 (SIK1): 457 nM
IC50 (SIK3): 15.5 nM
SMILES: Cc1ccc(Nc2ccc3c(c2)ncn3-c2ccc(C(C)O)c(N3CC[C@H]4NCC[C@@H]43)n2)nn1 (mixture of isomers) [Example 127, 1-[6-[5-[(6-Methylpyridazin-3-yl)amino]benzimidazol-1-yl]-2-[rac-trans-2,3,3a,5,6,6a-hexahydro-1H-pyrrolo[3,2-b]pyrrol-4-yl]-3-pyridyl]ethanol]

IC50 (SIK2): 2.3 nM
IC50 (SIK1): 9 nM
IC50 (SIK3): 0.8 nM
SMILES: Cc1ccc(Nc2ccc3c(c2)ncn3-c2ccc(C(C)O)c(-n3nc(C#N)cc3C)n2)cn1 (stereo not drawn) [Example 81, 1-[3-(1-Hydroxyethyl)-6-[5-[(6-methyl-3-pyridyl)amino]benzimidazol-1-yl]-2-pyridyl]-5-methyl-pyrazole-3-carbonitrile]

IC50 (SIK2): 29.5 nM
IC50 (SIK1): 7780 nM
IC50 (SIK3): 5.4 nM
SMILES: Cc1ccc(Nc2ccc3c(c2)ncn3-c2ccc(C(C)O)c(-c3cc(C#N)n(C)n3)n2)nn1 (stereo not drawn) [Example 246, 5-[3-(1-Hydroxyethyl)-6-[5-[(6-methylpyridazin-3-yl)amino]benzimidazol-1-yl]-2-pyridyl]-2-methyl-pyrazole-3-carbonitrile; formic acid]

IC50 (SIK2): 6 nM
IC50 (SIK1): 132 nM
IC50 (SIK3): 2.8 nM
SMILES: COCCOCCOCCOCCOCCOCCOCCOc1ccc(Nc2ccc3c(c2)ncn3-c2ccc(C(C)O)c(-n3nc(C#N)cc3C)n2)nn1 (stereo not drawn) [Example 293, 1-[3-(1-hydroxyethyl)-6-[5-[[6-[2-[2-[2-[2-[2-[2-(2-methoxyethoxy)ethoxy]ethoxy]ethoxy]ethoxy]ethoxy]ethoxy]pyridazin-3-yl]amino]benzimidazol-1-yl]-2-pyridyl]-5-methyl-pyrazole-3-carbonitrile]

IC50 (SIK2): 2 nM
IC50 (SIK1): 521 nM
IC50 (SIK3): 1.8 nM
SMILES: Cc1ccc(Nc2ccc3c(c2)ncn3-c2ccc(C(C)O)c(-c3cn(C4CC4(F)F)nc3C)n2)nn1 (stereo not drawn) [Example 277, 1-[2-[1-(2,2-difluorocyclopropyl)-3-methyl-pyrazol-4-yl]-6-[5-[(6-methylpyridazin-3-yl)amino]benzimidazol-1-yl]-3-pyridyl]ethanol]
